Reference: BindingDB's records for patent US12110286 (Cancer Research Technology, 2024)

Molecular target: B-cell lymphoma 6 protein (Homo sapiens, UniProt P41182)
Test: HTRF In Vitro Assay
Description: The % inhibition at each concentration was calculated by normalising FRET ratio to the appropriate high (DMSO with all reagents) and low (DMSO without BCL6) controls.

## Cn1c(=O)n(CCC(C)(C)O)c2cc(Nc3nc(N4CCC(Cn5cccn5)CC4)ncc3Cl)ccc21 [US12110286, Example 35zb]
  IC50: 324 nM
